The source of these data is article PMC12066314, “Apigenin promotes melanogenesis and melanosome transport through the c-KIT/Raf-1/MAPK/CREB pathway in HEMCs” (Frontiers in Pharmacology, 2025).

This assay deals with c-KIT (Homo sapiens, UniProt P10721). Kind of assay: microscale thermophoresis (MST), […] target. Format: binding.
Sequence of c-KIT (P10721 26-976): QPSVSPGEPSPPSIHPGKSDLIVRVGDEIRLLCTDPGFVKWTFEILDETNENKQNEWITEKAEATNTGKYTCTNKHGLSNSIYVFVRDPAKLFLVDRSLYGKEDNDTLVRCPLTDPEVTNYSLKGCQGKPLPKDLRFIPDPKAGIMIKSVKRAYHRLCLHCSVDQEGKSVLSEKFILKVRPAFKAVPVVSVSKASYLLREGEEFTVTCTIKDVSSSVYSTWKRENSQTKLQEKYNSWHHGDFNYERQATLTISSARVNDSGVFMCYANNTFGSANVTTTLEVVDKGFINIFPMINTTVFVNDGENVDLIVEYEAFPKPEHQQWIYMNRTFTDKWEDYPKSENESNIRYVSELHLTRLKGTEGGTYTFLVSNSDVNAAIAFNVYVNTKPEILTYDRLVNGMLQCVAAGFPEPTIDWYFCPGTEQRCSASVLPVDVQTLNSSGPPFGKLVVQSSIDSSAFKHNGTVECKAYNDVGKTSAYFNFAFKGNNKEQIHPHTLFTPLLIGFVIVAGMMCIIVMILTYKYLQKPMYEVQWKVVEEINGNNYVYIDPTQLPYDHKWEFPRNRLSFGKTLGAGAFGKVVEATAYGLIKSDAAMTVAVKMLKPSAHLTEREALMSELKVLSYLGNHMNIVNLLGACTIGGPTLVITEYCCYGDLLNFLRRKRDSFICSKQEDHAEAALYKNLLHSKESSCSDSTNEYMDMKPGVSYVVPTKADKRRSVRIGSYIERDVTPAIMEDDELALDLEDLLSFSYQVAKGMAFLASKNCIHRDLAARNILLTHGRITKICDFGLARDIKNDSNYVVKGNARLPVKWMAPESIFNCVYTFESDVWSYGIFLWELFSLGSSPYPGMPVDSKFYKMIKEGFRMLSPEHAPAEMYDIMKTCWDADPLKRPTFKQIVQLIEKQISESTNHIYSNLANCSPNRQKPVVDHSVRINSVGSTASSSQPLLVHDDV

On to `O=c1cc(-c2ccc(O)cc2)oc2cc(O)cc(O)c12` [Apigenin], for which the Kd was 2.6 µM.
